According to US8778873B2, “Parenteral combination therapy for infective conditions with drug resistant bacterium” (Venus Remedies Limited, priority 2005, dated 2014):
Where a name gives a salt, the structure may show the parent alone.

Assays:
Enterococcus = assay: Average MIC data, growth at serial concentrations; format: cell-based
Description: (§1) Minimum Inhibitory Concentration Data
(§2) Average MIC data with growth details in various concentration of ceftriaxone and vancomycin combination of the present invention, ceftriaxone alone and vancomycin alone with following bacteria such as MSSA, Enterococcus, S. pneumoniae, Penicillin resistant streptococcus pneumoniae, MRSA.

S. aurens = assay: Average MIC data, growth at serial concentrations; format: cell-based
Description: as §1, §2

S. pneumoniae = assay: Average MIC data, growth at serial concentrations; format: cell-based
Description: as §1, §2

Streptococcus pneumoniae = assay: Average MIC data, growth at serial concentrations; format: cell-based
Description: as §1, §2

S. aurens (MRSA) = assay: Average MIC data, growth at serial concentrations; format: cell-based
Description: as §1, §2

[1] = system: penicillin- and quinolone-resistant pneumococcal mutant strain; conditions: experimental rabbit meningitis; cited from earlier work

CO/N=C(\C(=O)N[C@@H]1C(=O)N2C(C(=O)O)=C(CSc3nc(=O)c(=O)[nH]n3C)CS[C@H]12)c1csc(N)n1 [Ceftriaxone, (Z)-7-[2-(2-Aminothiazole-4-yl)-2-methoxyiminoacetamido]-3-[(2,5-dihydro-6-hydroxy-2-methyl-5-oxo-1,2,4-triazin-3-yl)thiomethyl]-3-cephem-4-carboxylic acid, disodium salt, Sesquaterhydrate]
Growth at concentration (Average MIC data) (Enterococcus; 0.125 μg/ml): Growth Found | Growth at concentration (Average MIC data) (Enterococcus; 0.25 μg/ml): Growth Found | Growth at concentration (Average MIC data) (Enterococcus; 0.5 μg/ml): Growth Found | Growth at concentration (Average MIC data) (Enterococcus; 1 μg/ml): No growth | Growth at concentration (Average MIC data) (Enterococcus; 2 μg/ml): No growth | Growth at concentration (Average MIC data) (Enterococcus; 4 μg/ml): No growth | Growth at concentration (Average MIC data) (Enterococcus; 8 μg/ml): No growth | Growth at concentration (Average MIC data) (Enterococcus; 16 μg/ml): No growth | Growth at concentration (Average MIC data) (Enterococcus; 32 μg/ml): No growth | Growth at concentration (Average MIC data) (Enterococcus; 64 μg/ml): No growth | Growth at concentration (Average MIC data) (Enterococcus; 128 μg/ml): No growth | Growth at concentration (Average MIC data) (S. aurens; 0.125 μg/ml): Growth Found | Growth at concentration (Average MIC data) (S. aurens; 0.25 μg/ml): Growth Found | Growth at concentration (Average MIC data) (S. aurens; 0.5 μg/ml): Growth Found | Growth at concentration (Average MIC data) (S. aurens; 1 μg/ml): No growth | Growth at concentration (Average MIC data) (S. aurens; 2 μg/ml): No growth | Growth at concentration (Average MIC data) (S. aurens; 4 μg/ml): No growth | Growth at concentration (Average MIC data) (S. aurens; 8 μg/ml): No growth | Growth at concentration (Average MIC data) (S. aurens; 16 μg/ml): No growth | Growth at concentration (Average MIC data) (S. aurens; 32 μg/ml): No growth | Growth at concentration (Average MIC data) (S. aurens; 64 μg/ml): No growth | Growth at concentration (Average MIC data) (S. aurens; 128 μg/ml): No growth | Growth at concentration (Average MIC data) (S. pneumoniae; 0.125 μg/ml): Growth Found | Growth at concentration (Average MIC data) (S. pneumoniae; 0.25 μg/ml): Growth Found | Growth at concentration (Average MIC data) (S. pneumoniae; 0.5 μg/ml): No growth | Growth at concentration (Average MIC data) (S. pneumoniae; 1 μg/ml): No growth | Growth at concentration (Average MIC data) (S. pneumoniae; 2 μg/ml): No growth | Growth at concentration (Average MIC data) (S. pneumoniae; 4 μg/ml): No growth | Growth at concentration (Average MIC data) (S. pneumoniae; 8 μg/ml): No growth | Growth at concentration (Average MIC data) (S. pneumoniae; 16 μg/ml): No growth | Growth at concentration (Average MIC data) (S. pneumoniae; 32 μg/ml): No growth | Growth at concentration (Average MIC data) (S. pneumoniae; 64 μg/ml): No growth | Growth at concentration (Average MIC data) (S. pneumoniae; 128 μg/ml): No growth | Growth at concentration (Average MIC data) (Streptococcus pneumoniae; 0.125 μg/ml): Growth Found | Growth at concentration (Average MIC data) (Streptococcus pneumoniae; 0.25 μg/ml): Growth Found | Growth at concentration (Average MIC data) (Streptococcus pneumoniae; 0.5 μg/ml): Growth Found | Growth at concentration (Average MIC data) (Streptococcus pneumoniae; 1 μg/ml): Growth Found | Growth at concentration (Average MIC data) (Streptococcus pneumoniae; 2 μg/ml): Growth Found | Growth at concentration (Average MIC data) (Streptococcus pneumoniae; 4 μg/ml): No growth | Growth at concentration (Average MIC data) (Streptococcus pneumoniae; 8 μg/ml): No growth | Growth at concentration (Average MIC data) (Streptococcus pneumoniae; 16 μg/ml): No growth | Growth at concentration (Average MIC data) (Streptococcus pneumoniae; 32 μg/ml): No growth | Growth at concentration (Average MIC data) (Streptococcus pneumoniae; 64 μg/ml): No growth | Growth at concentration (Average MIC data) (Streptococcus pneumoniae; 128 μg/ml): No growth | Growth at concentration (Average MIC data) (S. aurens (MRSA); 0.125 μg/ml): Growth Found | Growth at concentration (Average MIC data) (S. aurens (MRSA); 0.25 μg/ml): Growth Found | Growth at concentration (Average MIC data) (S. aurens (MRSA); 0.5 μg/ml): Growth Found | Growth at concentration (Average MIC data) (S. aurens (MRSA); 1 μg/ml): Growth Found | Growth at concentration (Average MIC data) (S. aurens (MRSA); 2 μg/ml): Growth Found | Growth at concentration (Average MIC data) (S. aurens (MRSA); 4 μg/ml): Growth Found | Growth at concentration (Average MIC data) (S. aurens (MRSA); 8 μg/ml): Growth Found | Growth at concentration (Average MIC data) (S. aurens (MRSA); 16 μg/ml): Growth Found | Growth at concentration (Average MIC data) (S. aurens (MRSA); 32 μg/ml): Growth Found | Growth at concentration (Average MIC data) (S. aurens (MRSA); 64 μg/ml): No growth | Growth at concentration (Average MIC data) (S. aurens (MRSA); 128 μg/ml): No growth

CN[C@H](CC(C)C)C(=O)N[C@H]1C(=O)N[C@@H](CC(N)=O)C(=O)N[C@H]2C(=O)N[C@H]3C(=O)N[C@H](C(=O)N[C@H](C(=O)O)c4cc(O)cc(O)c4-c4cc3ccc4O)[C@H](O)c3ccc(c(Cl)c3)Oc3cc2cc(c3O[C@@H]2O[C@H](CO)[C@@H](O)[C@H](O)[C@H]2O[C@H]2C[C@](C)(N)[C@H](O)[C@H](C)O2)Oc2ccc(cc2Cl)[C@H]1O [Vancomycin]
Growth at concentration (Average MIC data) (Enterococcus; 0.125 μg/ml): Growth Found | Growth at concentration (Average MIC data) (Enterococcus; 0.25 μg/ml): Growth Found | Growth at concentration (Average MIC data) (Enterococcus; 0.5 μg/ml): No growth | Growth at concentration (Average MIC data) (Enterococcus; 1 μg/ml): No growth | Growth at concentration (Average MIC data) (Enterococcus; 2 μg/ml): No growth | Growth at concentration (Average MIC data) (Enterococcus; 4 μg/ml): No growth | Growth at concentration (Average MIC data) (Enterococcus; 8 μg/ml): No growth | Growth at concentration (Average MIC data) (Enterococcus; 16 μg/ml): No growth | Growth at concentration (Average MIC data) (Enterococcus; 32 μg/ml): No growth | Growth at concentration (Average MIC data) (Enterococcus; 64 μg/ml): No growth | Growth at concentration (Average MIC data) (Enterococcus; 128 μg/ml): No growth | Growth at concentration (Average MIC data) (S. aurens; 0.125 μg/ml): Growth Found | Growth at concentration (Average MIC data) (S. aurens; 0.25 μg/ml): Growth Found | Growth at concentration (Average MIC data) (S. aurens; 0.5 μg/ml): Growth Found | Growth at concentration (Average MIC data) (S. aurens; 1 μg/ml): Growth Found | Growth at concentration (Average MIC data) (S. aurens; 2 μg/ml): Growth Found | Growth at concentration (Average MIC data) (S. aurens; 4 μg/ml): No growth | Growth at concentration (Average MIC data) (S. aurens; 8 μg/ml): No growth | Growth at concentration (Average MIC data) (S. aurens; 16 μg/ml): No growth | Growth at concentration (Average MIC data) (S. aurens; 32 μg/ml): No growth | Growth at concentration (Average MIC data) (S. aurens; 64 μg/ml): No growth | Growth at concentration (Average MIC data) (S. aurens; 128 μg/ml): No growth | Growth at concentration (Average MIC data) (S. pneumoniae; 0.125 μg/ml): Growth Found | Growth at concentration (Average MIC data) (S. pneumoniae; 0.25 μg/ml): Growth Found | Growth at concentration (Average MIC data) (S. pneumoniae; 0.5 μg/ml): No growth | Growth at concentration (Average MIC data) (S. pneumoniae; 1 μg/ml): No growth | Growth at concentration (Average MIC data) (S. pneumoniae; 2 μg/ml): No growth | Growth at concentration (Average MIC data) (S. pneumoniae; 4 μg/ml): No growth | Growth at concentration (Average MIC data) (S. pneumoniae; 8 μg/ml): No growth | Growth at concentration (Average MIC data) (S. pneumoniae; 16 μg/ml): No growth | Growth at concentration (Average MIC data) (S. pneumoniae; 32 μg/ml): No growth | Growth at concentration (Average MIC data) (S. pneumoniae; 64 μg/ml): No growth | Growth at concentration (Average MIC data) (S. pneumoniae; 128 μg/ml): No growth | Growth at concentration (Average MIC data) (Streptococcus pneumoniae; 0.125 μg/ml): Growth Found | Growth at concentration (Average MIC data) (Streptococcus pneumoniae; 0.25 μg/ml): Growth Found | Growth at concentration (Average MIC data) (Streptococcus pneumoniae; 0.5 μg/ml): Growth Found | Growth at concentration (Average MIC data) (Streptococcus pneumoniae; 1 μg/ml): No growth | Growth at concentration (Average MIC data) (Streptococcus pneumoniae; 2 μg/ml): No growth | Growth at concentration (Average MIC data) (Streptococcus pneumoniae; 4 μg/ml): No growth | Growth at concentration (Average MIC data) (Streptococcus pneumoniae; 8 μg/ml): No growth | Growth at concentration (Average MIC data) (Streptococcus pneumoniae; 16 μg/ml): No growth | Growth at concentration (Average MIC data) (Streptococcus pneumoniae; 32 μg/ml): No growth | Growth at concentration (Average MIC data) (Streptococcus pneumoniae; 64 μg/ml): No growth | Growth at concentration (Average MIC data) (Streptococcus pneumoniae; 128 μg/ml): No growth | Growth at concentration (Average MIC data) (S. aurens (MRSA); 0.125 μg/ml): Growth Found | Growth at concentration (Average MIC data) (S. aurens (MRSA); 0.25 μg/ml): Growth Found | Growth at concentration (Average MIC data) (S. aurens (MRSA); 0.5 μg/ml): Growth Found | Growth at concentration (Average MIC data) (S. aurens (MRSA); 1 μg/ml): Growth Found | Growth at concentration (Average MIC data) (S. aurens (MRSA); 2 μg/ml): Growth Found | Growth at concentration (Average MIC data) (S. aurens (MRSA); 4 μg/ml): No growth | Growth at concentration (Average MIC data) (S. aurens (MRSA); 8 μg/ml): No growth | Growth at concentration (Average MIC data) (S. aurens (MRSA); 16 μg/ml): No growth | Growth at concentration (Average MIC data) (S. aurens (MRSA); 32 μg/ml): No growth | Growth at concentration (Average MIC data) (S. aurens (MRSA); 64 μg/ml): No growth | Growth at concentration (Average MIC data) (S. aurens (MRSA); 128 μg/ml): No growth

CO/N=C(\C(=O)N[C@@H]1C(=O)N2C(C(=O)[O-])=C(C[N+]3(C)CCCC3)CS[C@H]12)c1csc(N)n1 [cefepime]
bactericidal activity [1]: −0.61+/−0.24 Delta log(10) cfu/mL×h
